Experimental data as given in patent US7262223B2, “Amidine derivatives for treating amyloidosis” (Neurochem (International) Limited, priority 2004, dated 2007).

Biological target: T1, solubilized Aβ40 (Homo sapiens, UniProt P05067)
T1 construct: 20 μM of solubilized Aβ40
Experiment: Mass spectroscopy (MS) assay of binding to soluble Aβ40
Design: key: “+” = active; “−” = inactive
Conditions: 200 μM test compound, 20 μM solubilized Aβ40, 20% ethanol, pH 7.4, electrospray ionization MS
Method: Test compounds were purchased from commercial sources or synthesized and screened by mass spectroscopy (“MS”) assay, which gives data on the ability of compounds to bind to an amyloid protein. Samples were prepared as aqueous solutions containing 20% ethanol, 200 μM of a test compound and 20 μM of solubilized Aβ40. The pH value of each sample was adjusted to 7.4 (±0.2) by addition of 0.1% aqueous sodium hydroxide. The solutions were then analyzed by electrospray ionization mass spectroscopy using a Waters ZQ 4000 mass spectrometer. Samples were introduced by direct infusion at a flow-rate of 25 μL/min within 2 hr. after sample preparation. The source temperature was kept at 70° C. and the cone voltage was 20 V for all the analysis. Data were processed using Masslynx 3.5 software. The MS assay gives data on the ability of compounds to bind to Aβ, whereas the ThT, EM and CD assays give data on inhibition of fibrillogenesis.

T1 sequence (P05067 672-711 limits assumed): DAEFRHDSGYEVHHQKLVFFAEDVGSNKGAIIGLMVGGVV

## N=C(NCCCCCCCN)c1ccc(Br)cc1 [Compound 145]
  MS Assay: +

## N=C(NCCCCCCCCCNC(=N)c1ccc(Br)cc1)c1ccc(Br)cc1 [Compound 151]
  MS Assay: +

## N/C(=N\O)c1ccc(OCCCCCCCCCNO)cc1 [Compound 147]
  MS Assay: −

## COc1ccc(C(=N)NCCCCCNC(=N)c2ccc(OC)cc2)cc1 [Compound 154]
  MS Assay: +

## COc1ccc(C(=N)NCCN2CCN=C2c2ccc(OC)cc2)cc1 [Compound 153]
  MS Assay: +

## N=C(NCCCCCCCNC(=O)c1ccc(Br)cc1)c1ccc(Br)cc1 [Compound 146]
  MS Assay: +

## N=C(N)c1ccc(S(=O)(=O)NCCCCCCCCCNS(=O)(=O)c2ccc(C(=N)N)cc2)cc1 [Compound 158]
  MS Assay: −

## N=C(NCCCCCNC(=N)c1ccc(Br)cc1)c1ccc(Br)cc1 [Compound 150]
  MS Assay: +

## Nc1ccc(OCCCCCOc2ccc(NC3=NCCN3)cc2)cc1 [Compound 156]
  MS Assay: −

## N=C(N)c1ccc(C(=O)NCCN(CCNC(=O)c2ccc(C(=N)N)cc2)C(=O)c2ccc(C(=N)N)cc2)cc1 [Compound 155]
  MS Assay: −

## CCOC(=O)c1ccc(C(=O)NCCCCCCCCCNC(=O)c2ccc(C(=N)N)cc2)cc1 [Compound 149]
  MS Assay: +

## COc1ccc(C(=N)NCCCCCCCCCNC(=N)c2ccc(OC)cc2)cc1 [Compound 152]
  MS Assay: −

## CCOC(=O)c1ccc(C(=O)NCCCCCCCNC(=O)c2ccc(C(=N)N)cc2)cc1 [Compound 148]
  MS Assay: +
